The values below come from patent publication US20100184852A1, “ORGANIC COMPOUNDS FOR TREATMENT OF DISORDERS CONNECTED TO IMPAIRED NEUROTRANSMISSION” (priority 2006, published 2010).

Assay [1] has as its system mice. Nature of the assay: Porsolt's swim test (behavioural despair test). The class given is in vivo, mouse. As to conditions: for Duration of immobility [seconds] ± Standard Error of Mean: last 4 of 6 minutes. As for the experimental part: The “Behavioural Despair Test” or “Porsolt's Forced Swim Test” is a validated animal model for depression (see T, Nagatsu 2004 Neuro Toxicology, 25:11-20, and Porsolt et al. 1977, Arch. Int. Pharmacodyn., 229: 327-336). It responds to enhancement of the trans-mission of several neurotransmitters including serotonine, dopamine and noradrenaline.
The test, which detects antidepressant activity, was carried out as described by Porsolt et al supra. Mice which are forced to swim in a situation from which they cannot escape rapidly become immobile. Antidepressants decrease the duration of immobility.
Mice were individually placed in a cylinder (Height=24 cm, Diameter=13 cm) containing 10 cm water (22° C.) from which they could not escape. The mice were placed in the water for 6 minutes and the duration of immobility during the last 4 minutes was measured.
10 mice were studied per each of the four groups. The test was performed blind, i.e. the person carrying out the experiment was different from the person injecting the mice and didn't thus know to which of the four groups each mouse belonged.
3-n-butylphthalide (98.5% purity) was evaluated at 3 doses each: at 10, 30 and 80 mg/kg body weight, administered intraperitoneally 30 minutes before the test, and compared with a control group. The thus administered 3-n-butylphthalide was dissolved in a saline solution containing 3 weight-% DMSO and 3 weight-% Tween® 80 (so called “vehicle”), To the control group the vehicle consisting of the saline solution containing 3 weight-% DMSO and 3 weight-% Tween® 80 was administered intraperitoneally.

The test system of assay [2] is mice. Nature of the assay: Primary observation (Irwin) test in the mouse. It counts as in vivo. As to conditions: for overall effect in the Irwin test: all doses tested. As for the experimental part:
The method, which detects the first toxic dose, the active dose-range and the principal effects of a test substance on behavior and physiological function, follows that described by Irwin 1968 Psychopharmaco, 13:222-257,
3 treated groups were compared with the same control at any one time. All animals within a treatment group were observed simultaneously.
Behavioral modifications, physiological and neurotoxicity symptoms, pupil diameter and rectal temperature were recorded according to a standardized observation grid derived from that of Irwin, supra. The grid contains the following items: lethality*, convulsions*, tremor*, Straub*, sedation, excitation, abnormal gait* (rolling, tip-toe), jumps*, motor incoordination*, writhes*, piloerection*, stereotypies* (sniffing, chewing, head movements), head twitches*, scratching*, respiration*, aggressiveness*, fear, reactivity to touch, muscle tone, loss of righting reflex, ptosis, exopthalmos, loss of grasping, akinesia, catalepsy, loss of traction, loss of corneal reflex, analgesia, defecation, salivation, lacrimation, pupil diameter (Unit=1/45 mm) and rectal temperature.
Observations were performed 15, 30, 60, 120 and 180 minutes after administration of the test substance and also 24 hours later. The symptoms marked (*) were observed continuously from 0 to 15 minutes after administration. 5 mice were studied per group.
3-Butylphthalide (98.5% purity) was solubilized in 3% DMSO, 3% Tween 80 in saline (0.9% w/v NaCl) and injected into mice intraperitoneally.

The target in assay [3] is T1, Monoamine oxidase B (MAO-B) (Homo sapiens, UniProt P27338).
T1 sequence (P27338 1-520): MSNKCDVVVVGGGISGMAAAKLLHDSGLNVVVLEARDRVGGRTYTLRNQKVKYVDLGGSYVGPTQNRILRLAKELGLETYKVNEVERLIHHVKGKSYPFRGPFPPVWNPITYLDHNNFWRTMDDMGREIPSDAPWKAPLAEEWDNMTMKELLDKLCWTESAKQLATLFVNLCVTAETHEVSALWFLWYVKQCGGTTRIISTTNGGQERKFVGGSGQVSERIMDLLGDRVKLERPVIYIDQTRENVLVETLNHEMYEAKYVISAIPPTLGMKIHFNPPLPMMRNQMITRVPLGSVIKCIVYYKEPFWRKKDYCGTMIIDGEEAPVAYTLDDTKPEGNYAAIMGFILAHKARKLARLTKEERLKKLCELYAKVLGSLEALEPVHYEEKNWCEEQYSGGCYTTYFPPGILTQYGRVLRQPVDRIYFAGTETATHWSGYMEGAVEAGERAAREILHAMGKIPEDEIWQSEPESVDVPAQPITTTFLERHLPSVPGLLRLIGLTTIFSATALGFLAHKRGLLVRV
Nature of the assay: Monoaminooxidase B inhibition (H2O2/vanillic acid/HRP readout). It counts as biochemical. As for the experimental part:
The organic amines p-tyramine or benzylamine were used as substrates for the Monoamine oxidase A (MAO-A) and B (MAO-B) enzymes respectively. The H2O2 produced by this reaction was quantified by reaction with vanillic acid, catalysed by horse radish peroxidase (HRP).
The reactions were carried out in polystyrene microtitre plates. The MAO enzymes (final concentration 2 U/ml) were mixed with either p-tyramine (Sigma, final concentration 0.5 mM) or benzylamine (Sigma, final concentration 0.5 mM) as appropriate and the chromogenic solution (containing vanillic acid (Fluka), 4-aminoantipyrine (Fluka) and horse radish peroxidase (Sigma), final concentrations 0.25 mM, 0.125 mM and 1 U/ml respectively) in 0.2 M potassium phosphate buffer pH 7.6. The reactions were followed in a microtitre plate absorbance reader eg Spectramax M5 (Molecular Devices Corporation). Absorbance readings at 495 nm were taken every 15 seconds for 40 minutes and the initial reaction velocities calculated by linear regression using SOFTmaxPro (Molecular Devices Corporation).
The effect of ligustilide, 3-butylphthalide, senkyunolide C and cnidilide on the monoamine oxidase enzymes was determined by their inclusion in the assay at a range of concentrations between 0.03 and 100 μM for 10 minutes prior to and during the incubation with substrate. To determine the effect of the compounds on the HRP catalyzed portion of the reaction, the MAO enzyme was replaced by H2O2 (Molecular Probes, final concentration 0.2 mM). The reactions containing MAO-A and MAO-B were both inhibited by […] according to formula I in a dose dependent manner, whilst the control reaction, was unaffected. The measured IC50 values for inhibition of monoamine oxidase activity by ligustilide, 3-butylphthalide, senkyunolide C and enidilide, respectively, are shown in Table 3.

[4] abbreviates: 100 mg/kg, 15 to 60 minutes after administration.

For the compound `CCCC[C@@H]1OC(=O)c2ccccc21` (stereo in doubt) [3-n-butylphthalide, 3-n-Butylphthalide], the “Duration of immobility [seconds] ± Standard Error of Mean” value worked out at 132.4 ± 9.3 s in the assay on mice [1] (10 mg/kg body weight), 128.0 ± 15.3 s in the assay on mice [1] (30 mg/kg body weight) and 129.0 ± 15.4 s with mice [1] (80 mg/kg body weight). Besides, the “reduction of the immobility time” value in the assay with mice [1] (between 10 and 80 mg/kg, tendency) is reported as “approximately 18%”. The muscle tone result was “reduced muscle tone” in the assay with mice [2] (100 mg/kg, 15 to 60 minutes); “reduced muscle tone” with mice [2] (200 mg/kg); “reduced” in the assay with mice [2] (300 mg/kg, 120 minutes). The sedation entry is “slight sedative effects” in the assay on mice [2] (setting [4]); “moderate sedative effects” with mice [2] (200 mg/kg, up to 120 minutes); “marked sedation” in the assay on mice [2] (300 mg/kg, 15 minutes and 30 minutes); “moderate sedation” in the assay on mice [2] (300 mg/kg, 60 minutes and 120 minutes); “slight sedation” in the assay with mice [2] (300 mg/kg, 180 minutes). For the same compound, the fear entry in the assay on mice [2] (200 mg/kg, after 60 minutes) is “reduced fear”; with mice [2] (300 mg/kg, 120 minutes), “reduced”. Further, the “overall effect in the Irwin test” value is “dose dependent sedative and muscle relaxant effect” in the assay on mice [2]; “dose dependent sedative, fear reducing and muscle relaxant effect” in the assay with mice [2] (listed as 3-butylphthalide). Besides, half-maximal inhibition in assay [3] (IC50) was put at 56.1 µM.
With `CCC/C=C1\OC(=O)C2=C1CCC=C2` [Ligustilide], the “Duration of immobility [seconds] ± Standard Error of Mean” value in the assay on mice [1] (10 mg/kg body weight) came out at 128.9 ± 15.1 s; in the assay with mice [1] (30 mg/kg body weight) it was 164.2 ± 15.5 s. Also, the “reduction of the immobility time” value was “approx. 18%” in the assay on mice [1] (10 mg/kg, tendency); “not at the higher doses” in the assay with mice [1] (higher doses (30 and 80 mg/kg)). In addition, the sedation entry in the assay on mice [2] (30 mg/kg, 30 minutes) is reported as “slight sedation”; in the assay with mice [2] (setting [4]), “slight sedation”; in the assay with mice [2] (200 mg/kg, 180 minutes) it was “slight”; in the assay on mice [2] (200 mg/kg, up to 120 minutes), “slight-to-moderate”; in the assay on mice [2] (300 mg/kg, 15 to 60 minutes) it was “moderate”; in the assay on mice [2] (300 mg/kg, 120 to 180 minutes) it was “slight”. For the same compound, the muscle tone result with mice [2] (100 mg/kg, 15 to 60 minutes) is listed as “decreased muscle tone”; in the assay on mice [2] (200 mg/kg) it was “decreased muscle tone”; with mice [2] (300 mg/kg, 15 to 180 minutes), “decreased muscle tone”. For the same compound, the “overall effect in the Irwin test” value in the assay with mice [2] was “dose dependent sedative and muscle relaxant effect”. The IC50 in assay [3] is 24.9 µM.
